Tests used:
Design in all cases: species or system AML cell lines (8); Primary HTS, single concentration about 10 uM, Cell Titer Glo viability; log10 luminescence, per cent inhibition relative to cycloheximide control
Conditions in all cases: 72 h, relative to cycloheximide control, log10 luminescence; inhibitor
CHRF288-11 = system: CHRF288-11
CMK = system: CMK
CMS = system: CMS
M07e = system: M07e
ML-2 = system: ML-2
MOLM-13 = system: MOLM-13
MV4-11 = system: MV4-11
U937 = system: U937

Compound | CHRF288-11 %inh (CHRF288-11) [%] | CMK %inh (CMK) [%] | CMS %inh (CMS) [%] | M07e %inh (M07e) [%] | ML-2 %inh (ML-2) [%] | MOLM-13 %inh (MOLM-13) [%] | MV4-11 %inh (MV4-11) [%] | U937 %inh (U937) [%]
CN(c1ccc(NC(=O)NCCN2CCOCC2)cc1)c1ccnc(Nc2ccc(CS(C)(=O)=O)cc2)n1 [SJ000573175-1, U17983/92/2] | -0.5072 | -0.4287 | 0.2292 | 2.849 | 2.492 | 82.21 | 85.52 | 4.061
Oc1cccc(-c2nc(-c3ccccc3)[nH]c2-c2ccncc2)c1 [SJ000573176-1, KH49127-012A1] | 2.324 | 4.668 | 5.24 | 1.15 | 2.359 | 8.153 | 3.826 | 2.636
CCN(CC)S(=O)(=O)c1ccc(OC)c(Nc2ncc(-c3ccccc3)o2)c1 [SJ000573177-1, U14961/35/1] | -8.829 | 11.05 | 2.203 | -3.903 | 1.232 | 13.29 | 74.67 | 3.148
COc1cccc(-n2nc(C)c3c(N/N=C(\C)c4ccncc4)ncnc32)c1 [SJ000573178-1, U17747/163/1] | -4.056 | -0.9949 | 0.07052 | -1.478 | -1.055 | -1.351 | -0.7035 | -2.387
O=C1NC(=O)C(c2cccc(Cl)c2)=C1Nc1ccc(Cl)c(C(=O)O)c1 [SJ000573179-1, RS98844-062A1] | -5.305 | -1.769 | -1.594 | -0.5868 | 0.225 | -0.7042 | -0.02775 | 1.114
Nc1nccc(-c2c(-c3ccc(F)cc3)ncn2CCCN2CCOCC2)n1 [SJ000573180-1, TG19207-124A1] | -0.01823 | -0.5604 | -3.18 | 1.031 | 2.942 | -0.9293 | 0.7283 | 3.947
CC1=C(C(=O)Nc2cc(Cl)c3[nH]ncc3c2)C(c2ccc(C(F)(F)F)cc2)CC(=O)N1 (centres unmarked) [SJ000573181-1, SD204573-088A4] | 20.3 | 54.4 | 8.733 | 13.65 | 13.01 | 4.804 | 31.1 | 8.409
Nc1nccc(-c2c(-c3ccc(F)cc3)ncn2C2CCC(O)CC2)n1 (centres unmarked) [SJ000573182-1, MS27011-022A2] | 23.09 | 25.82 | 9.299 | 6.63 | 10.85 | 26.67 | 24.38 | 5.213
O=C1NC(=O)C(c2ccccc2Cl)=C1Nc1cccc(O)c1 [SJ000573183-1, BS98679-018A5] | 41.21 | 56.79 | 26.93 | 51.61 | 39.83 | 67.3 | 22.8 | 51.74
COc1cccc(-c2c[nH]c3c(N/N=C/c4ccncc4)ncnc23)c1 [SJ000573184-1, U18675/6/1] | 52.41 | 96.73 | 90.74 | 38.1 | 19.51 | 59.82 | 58.64 | 14.24
NC(=O)c1sc(-n2cnc3cc(C(F)(F)F)ccc32)cc1OCc1ccccc1Br [SJ000573185-1, U19121/197/1] | 0.2512 | 3.577 | -1.069 | -2.426 | -0.4297 | 0.4978 | 1.859 | -0.2413
CS(=O)(=O)Nc1cccc(-c2ccc3c(NC(=O)C4CC4)n[nH]c3c2)c1 [SJ000573187-1, VB100064-178A3] | 25.27 | 72.59 | 0.4745 | 29.33 | 56.77 | 75.64 | 73.57 | 80.28
[O-][S+]1CCN(Cc2ccc(-c3ccc4ncnc(Nc5ccc(OCc6ccccc6)c(F)c5)c4c3)o2)CC1 [SJ000573188-1, U14859/145/2] | 1.525 | -1.588 | -1.026 | -1.871 | -0.4978 | 2.781 | 1.608 | -0.5877
O=C(Nc1n[nH]c2cc(-c3cc(F)ccc3F)ccc12)C1CC1 [SJ000573189-1, VB100064-133A2] | 23.56 | 46.32 | 3.394 | 13.96 | 4.109 | 3.339 | 1.045 | 8.276
CC1(C)CC(n2cnc(-c3ccc(F)cc3)c2-c2ccnc(N)n2)CC(C)(C)N1 [SJ000573190-1, JB19236-188C1] | 9.345 | 5.841 | -2.621 | 10.18 | 5.936 | 0.169 | 1.547 | -2.021
CC(C)c1ccc(Nc2nccc(-c3cnn4ncccc34)n2)cc1 [SJ000573192-1, U16419/190/2] | 27.16 | 58.79 | 101.8 | 49.73 | 59.67 | 111.4 | 84.54 | 82.47
CCc1cccc(NC(=O)Nc2ccc(Oc3ccc4nc(NC(=O)OC)[nH]c4c3)cc2)c1 [SJ000573193-1, T229/79/1] | -2.602 | 50 | -0.1127 | 0.5293 | 5.896 | 61.84 | 84.23 | 3.761
Cc1nnc(-c2ccc(C)c(-c3ccc(C(=O)Nc4cccc(C#N)c4)cc3)c2)o1 [SJ000573195-1, R4373/145/1] | -2.997 | 1.609 | -1.248 | -0.9532 | 2.033 | 1.779 | 0.5717 | -2.444
COc1ccc2cc(-c3c(-c4ccncc4)nc(-c4ccc(S(C)(=O)=O)cc4C)n3C)ccc2c1 [SJ000573196-1, NJ44157-082B1] | 3.66 | 17.63 | 1.339 | -0.09869 | 0.1738 | 0.5598 | 2.69 | -1.98

— publication PMC6522510 (Nature Communications, 2019)
